From patent publication US8168642B2, “Dihydropyrimidine compounds and their uses in preparation of medicaments for treating and preventing antiviral diseases” (Beijing Molecule Science and Technology Co., Ltd., priority 2006, dated 2012)

SMILES | melting point
CCOC(=O)C1=C(C)NC(c2nccn2Cc2ccccc2)=NC1c1ccc(F)cc1Cl (stereo not shown) | 114 to 117 °C
CCOC(=O)C1=C(C)NC(c2cnc(C)s2)=NC1c1ccc(F)cc1Cl (stereo not shown) | 107 to 111 °C
CCOC(=O)C1=C(C)NC(c2cscn2)=NC1c1ccccc1F (stereo not shown) | 126 to 128 °C
CCOC(=O)C1=C(C)NC(c2cnc(Cl)s2)=NC1c1ccc(F)cc1Cl (stereo not shown) | 159 to 162 °C
COC(=O)C1=C(C)NC(c2cnc(Cl)s2)=NC1c1ccc(F)cc1 (stereo not shown) | 175 to 178 °C
COC(=O)C1=C(C)NC(c2cnc(Cl)s2)=NC1c1ccc(F)cc1Cl (stereo not shown) | > 230 °C
CCOC(=O)C1=C(C)N(C(C)=O)C(c2cscn2)=NC1c1cccc(OC)c1 (stereo not shown) | 130 to 131 °C
CCOC(=O)C1=C(C)N(C(C)=O)C(c2csc(C)n2)=NC1c1cccc(OC)c1 (stereo not shown) | 114 to 116 °C
CCOC(=O)C1=C(C)NC(c2csc(N)n2)=NC1c1ccc(F)cc1Cl (stereo not shown) | 95 to 110 °C
CCOC(=O)C1=C(C)NC(c2ncc[nH]2)=NC1c1ccc(F)cc1Cl (stereo not shown) | 157 to 162 °C
CCOC(=O)C1=C(C)NC(c2cscn2)=NC1c1cccc(OC)c1 (stereo not shown) | 140 to 142 °C
CCOC(=O)C1=C(C)NC(c2ncsc2Cl)=NC1c1ccc(F)cc1Cl (stereo not shown) | 149 to 152 °C
CCOC(=O)C1=C(C)NC(c2ncc[nH]2)=NC1c1ccccc1Cl (stereo not shown) | 121 to 125 °C
CCOC(=O)C1=C(C)N(C(C)=O)C(c2csc(C)n2)=NC1c1ccccc1 (stereo not shown) | 140 to 142 °C
CCOC(=O)C1=C(C)N(C(C)=O)C(c2csc(C)n2)=NC1c1cccc(F)c1 (stereo not shown) | 127 to 130 °C
COC(=O)C1=C(C)NC(c2ncsc2Cl)=NC1c1ccc(F)cc1 (stereo not shown) | 118 to 122 °C
CCOC(=O)C1=C(C)N(C(C)=O)C(c2csc(C)n2)=NC1c1cccc(C)c1 (stereo not shown) | 113 to 114 °C
CCOC(=O)C1=C(C)NC(c2cscn2)=NC1c1cccc(Cl)c1 (stereo not shown) | 105 to 108 °C
CCOC(=O)C1=C(C)N(C(C)=O)C(c2csc(C)n2)=NC1c1ccc(OC)cc1 (stereo not shown) | 138 to 140 °C
COC(=O)C1=C(C)NC(c2ncsc2Cl)=NC1c1ccc(F)cc1Cl (stereo not shown) | 98 to 100 °C
CCOC(=O)C1=C(C)NC(c2nccn2C)=NC1c1ccccc1Cl (stereo not shown) | 124 to 127 °C
CC1=C(C(=O)OC(C)C)C(c2ccc(F)cc2Cl)N=C(c2c(F)cccc2F)N1 (stereo not shown) | 155 to 158 °C
CCOC(=O)C1=C(C)NC(c2cscn2)=NC1c1cccc(F)c1 (stereo not shown) | 118 to 120 °C

Second part, the molecule after the results:

melting point | SMILES
213 to 216 °C | CCOC(=O)C1=C(C)NC(c2cscn2)=NC1c1ccc(O)cc1 (stereo not shown)
175 to 178 °C | CCOC(=O)C1=C(C)NC(c2csc(C)n2)=NC1c1cccc(O)c1 (stereo not shown)
143 to 144 °C | CCOC(=O)C1=C(C)NC(c2csc(C)n2)=NC1c1cccc(Cl)c1 (stereo not shown)
187 to 188 °C | CCOC(=O)C1=C(C)N(C(C)=O)C(c2csc(C)n2)=NC1c1ccc(C)cc1 (stereo not shown)
208 to 210 °C | CCOC(=O)C1=C(C)NC(c2csc(C)n2)=NC1c1ccc(O)cc1 (stereo not shown)
140 to 142 °C | CCOC(=O)C1=C(C)N(C(C)=O)C(c2csc(C)n2)=NC1c1ccc(F)cc1 (stereo not shown)
180 to 183 °C | CCOC(=O)C1=C(C)NC(c2cscn2)=NC1c1cccc(O)c1 (stereo not shown)
123 to 125 °C | CCOC(=O)C1=C(C)NC(c2csc(C)n2)=NC1c1ccc(F)cc1Cl (stereo not shown)
133 to 134 °C | CCOC(=O)C1=C(C)NC(c2cscn2)=NC1c1cccc(C)c1 (stereo not shown)
118 to 120 °C | CCOC(=O)C1=C(C)NC(c2cscn2)=NC1c1ccc(F)cc1 (stereo not shown)
169 to 171 °C | CCOC(=O)C1=C(C)N(C(C)=O)C(c2csc(C)n2)=NC1c1ccc(Cl)cc1 (stereo not shown)
